pIC50: −log10 of the molar value.
Tests used:
[1] = Cytotoxicity against HEK293 cells assessed as reduction in cell viability after 48 hrs by MTT assay; assay type: toxicity, cell-based; settings: human
[2] = Selectivity index, ratio of IC50 for HEK293 cells to IC50 for antitrypanosomal activity against bloodstream Trypanosoma brucei Lister 427; assay type: toxicity; settings: human, read-out: Ratio IC50
Trypanosoma brucei [3] = assay: Antitrypanosomal activity against bloodstream Trypanosoma brucei Lister 427 assessed as reduction in parasite viability incubated for 48 hrs by MTS assay; assay type: functional, organism-based; settings: Lister 427, 48 h
[4] = Selectivity index, ratio of IC50 for mouse RAW264.7 cells to IC50 for antitrypanosomal activity against bloodstream Trypanosoma brucei Lister 427; assay type: toxicity; settings: read-out: Ratio IC50
[5] = Cytotoxicity against mouse RAW264.7 cells assessed as reduction in cell viability after 48 hrs by MTT assay; assay type: toxicity, cell-based
[6] = Acute toxicity in CD1 mouse assessed as change in body weight at 50 mg/kg, po; assay type: organism-based; settings: in vivo
Trypanosoma brucei [7] = assay: Antitrypanosomal activity against Trypanosoma brucei infected in CD1 mouse assessed as reduction in parasite number at 50 mg/kg/day, po administered for 3 days and measured on day 5 by hemocytometer analysis (reference value: 40 10^6/ml; assay type: functional; settings: time 5 day

Structure (SMILES) | pIC50 (Trypanosoma brucei [3]) | IC50 at 48 h [1] [µM] | selectivity ratio [2] | selectivity ratio [4] | IC50 at 48 h [5] [µM] | Activity [6] | Activity (Trypanosoma brucei [7])
COc1cc(NC(=O)c2cc(Cl)cc(Cl)c2)ccc1S(N)(=O)=O | < 4.00 | 98 | < 0.98 | < 0.81 | 81 |  | 
COc1cc(NC(=O)c2cc(OC)c(OC)c(OC)c2)ccc1S(N)(=O)=O | 4.04 | 32.9 | 0.36 | 0.38 | 34.6 |  | 
COc1cc(NC(=O)c2ccc(SC)cc2)ccc1S(N)(=O)=O | < 4.00 | > 100 |  | < 0.2 | 19.6 |  | 
COc1cc(NC(=O)c2ccccc2[N+](=O)[O-])ccc1S(N)(=O)=O | < 4.00 | > 100 |  |  | > 100 |  | 
COc1cc(NC(=O)c2ccccn2)ccc1S(N)(=O)=O | < 4.00 | > 100 |  |  | > 100 |  | 
COc1cc(NC(=O)c2ccc(Cl)cc2)ccc1S(N)(=O)=O | 4.33 | > 100 | > 2.14 | 0.94 | 43.9 |  | 
COc1cc(NC(=O)c2ccc(C(F)(F)F)cc2C(F)(F)F)ccc1S(N)(=O)=O | 4.09 | > 100 | > 1.22 | 0.73 | 59.1 |  | 
CCc1ccc(C(=O)Nc2ccc(S(N)(=O)=O)c(OC)c2)cc1 | 4.43 | 5.69 | 0.15 | 0.64 | 23.9 |  | 
COc1cc(NC(=O)c2ccc(N(C)C)cc2)ccc1S(N)(=O)=O | < 4.00 | > 100 |  |  | > 100 |  | 
COc1cc(NC(=O)c2ccc(OC(F)(F)F)cc2)ccc1S(N)(=O)=O | 4.44 | 35.8 | 0.99 | 0.93 | 33.8 |  | 
COc1cc(NC(=O)COCC(=O)Nc2ccc(S(N)(=O)=O)c(OC)c2)ccc1S(N)(=O)=O | 4.07 | 98 | 1.15 | 0.95 | 81 |  | 
COc1cc(NC(=O)c2ccc(C)cc2)ccc1S(N)(=O)=O | 4.15 | 17.2 | 0.24 | 0.76 | 53.2 |  | 
COc1cc(NC(=O)c2ccc3ccccc3c2)ccc1S(N)(=O)=O | 6.00 | 18 | 17.9 | 18.1 | 18.1 | Non-Toxic | 10 10^6/ml
COc1cc(NC(=O)c2ccc(Cl)c(Cl)c2)ccc1S(N)(=O)=O | 4.41 | 22.4 | 0.58 | 0.62 | 23.8 |  | 

More lines, in order of rising pIC50 (Trypanosoma brucei [3]), values ahead:

pIC50 (Trypanosoma brucei [3]) | Structure (SMILES) | IC50 at 48 h [1] [µM] | selectivity ratio [2] | selectivity ratio [4] | IC50 at 48 h [5] [µM] | Activity [6] | Activity (Trypanosoma brucei [7])
4.44 | COc1cc(NC(=O)c2cccc(C(F)(F)F)c2)ccc1S(N)(=O)=O | > 100 | > 2.78 | 2.13 | 76.7 |  | 
4.51 | COc1cc(NC(=O)c2cccc(C)c2)ccc1S(N)(=O)=O | > 100 | > 3.22 | > 3.22 | > 100 |  | 
4.62 | COc1cc(NC(=O)c2cc(C(F)(F)F)cc(C(F)(F)F)c2)ccc1S(N)(=O)=O | 74.3 | 3.11 | 1.94 | 46.3 |  | 
4.68 | COc1cc(NC(=O)c2cccc(C#N)c2)ccc1S(N)(=O)=O | > 100 | > 4 | 1.68 | 35 |  | 
4.71 | COc1cc(NC(=O)c2cccc(I)c2)ccc1S(N)(=O)=O | 48.9 | 2.53 | > 5.16 | > 100 |  | 
4.82 | COc1cc(NC(=O)c2ccc(Cl)c([N+](=O)[O-])c2)ccc1S(N)(=O)=O | 15.7 | 1.03 | 4.77 | 72.7 |  | 
4.88 | COc1cc(NC(=O)c2cccc(Br)c2)ccc1S(N)(=O)=O | 48.6 | 3.66 | 1.57 | 20.9 |  | 
4.96 | COc1cc(NC(=O)c2ccc3c(c2)OCO3)ccc1S(N)(=O)=O | 8.8 | 0.81 | 4.41 | 48.1 |  | 
5.01 | COc1cc(NC(=O)c2ccco2)ccc1S(N)(=O)=O | > 100 | > 10.2 | > 10.2 | > 100 |  | 
5.11 | COc1cc(NC(=O)c2ccc(C)c([N+](=O)[O-])c2)ccc1S(N)(=O)=O | > 100 | > 33.3 |  | 53.1 |  | 
5.37 | COc1cc(NC(=O)c2ccc(C#N)cc2)ccc1S(N)(=O)=O | > 100 | > 26.5 | > 26.5 | > 100 |  | 
5.48 | COc1cc(NC(=O)c2ccc([N+](=O)[O-])cc2)ccc1S(N)(=O)=O | > 100 | > 30.4 | 176 | 578 |  | 
5.49 | COc1cc(NC(=O)c2ccc(Br)cc2)ccc1S(N)(=O)=O | 86.8 | 21.7 | 12.1 | 48.3 |  | 
5.52 | COc1cccc(C(=O)Nc2ccc(S(N)(=O)=O)c(OC)c2)c1 | > 100 | > 33.5 | 38 | 113 |  | 
5.56 | COc1cc(NC(=O)c2cccc(Cl)c2)ccc1S(N)(=O)=O | > 100 | > 36.6 | 33.5 | 91.5 |  | 
5.57 | CCOc1ccc(C(=O)Nc2ccc(S(N)(=O)=O)c(OC)c2)cc1 | > 100 | > 37.3 | > 37.3 | > 100 |  | 
